Columns and labels:
3T3-L1 [1] = test: Percentage of rosiglitazone response for insulin-sensitizing activity at 1 uM concentration in 3T3-L1 cells; format: functional, Mus musculus
3T3-L1 [2] = test: Effective concentration for enhancement of insulin-induced triglyceride accumulation in 3T3-L1 cells; format: functional; details: Mus musculus

Structure (SMILES) | Insulin-sensitizing activity (3T3-L1 [1]) | EC30 (3T3-L1 [2])
CCc1ccc(CCOc2ccc3cc(C(=O)OC)c(=O)oc3c2)nc1 | 46% | 
CCc1ccc(CCOc2ccc3cc(C(=O)O)c(=O)oc3c2)nc1 | 15% | 
COC(=O)c1cc2ccc(OCCc3nc(-c4ccccc4)oc3C)cc2oc1=O | 129% | 8 nM
COC(=O)c1cc2ccc(OCCn3ccc4ccccc43)cc2oc1=O | 108% | 344 nM
COC(=O)c1cc2cc(OCCc3nc(-c4ccccc4)oc3C)ccc2oc1=O | 33% | 
COC(=O)C1Cc2cc(OCCc3nc(-c4ccccc4)oc3C)ccc2OC1=O (stereo not drawn) | 28% | 
CCc1ccc(CCOc2ccc3c(c2)OC(=O)C(C(=O)OC)C3)nc1 (stereo not drawn) | 27% | 
COC(=O)C1Cc2ccc(OCCN(C)c3nc4ccccc4o3)cc2OC1=O (stereo not drawn) | 108% | 219 nM
COC(=O)c1cc2ccc(OCCN(C)C(=O)OC(C)(C)C)cc2oc1=O | 115% | 
CN(CCOc1ccc(CC2SC(=O)NC2=O)cc1)c1ccccn1 (stereo not drawn) [ROSIGLITAZONE] | 100% | 20.3 nM
Cc1oc(-c2ccccc2)nc1CCOc1ccc2cc(C(=O)O)c(=O)oc2c1 | 103% | 300 nM
Cc1oc(-c2ccccc2)nc1CCOc1ccc2c(c1)OC(=O)C(C(=O)O)C2 (stereo not drawn) | 98% | 110 nM
Cc1oc(-c2ccccc2)nc1CCOc1ccc2cc(C(=O)OC(C)(C)C)c(=O)oc2c1 | 89% | 382 nM
O=C(O)c1cc2ccc(OCCn3ccc4ccccc43)cc2oc1=O | 25% | 
COC(=O)C1Cc2ccc(OCCc3nc(-c4ccccc4)oc3C)cc2OC1=O (stereo not drawn) | 132% | 15.6 nM

From ChEMBL document CHEMBL1136279, “Synthesis and insulin-sensitizing activity of a novel kind of benzopyran derivative” (2003)
